Several values for one entry are separate records, joined by “and”; a condition that tells them apart may be missing. Equal values may be shown once. Toxic doses and inconclusive results are not listed. How the source made its calls: active means survival T/C of 150% or more; inactive means T/C below 125% in these data.
System: P388 leukemia ip, CD2F1 mice, survival T/C
Assay: NCI In Vivo Anticancer Drug Screen. Data for tumor model P388 Leukemia (intraperitoneal) in CD2F1 (CDF1) mice
Conditions: endpoint: median survival time, higher = longer survival
Procedure, shortened: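 Mice carrying the transplanted tumor received test compound or vehicle. Survival was recorded in each group, and the value is the treated-group measurement divided by that of the vehicle-treated control group.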

[1] = dose: 50.0 mg/kg/injection, schedule: Q01DX005 (ip), vehicle: saline with Tween-80
[2] = dose: 100.0 mg/kg/injection, schedule: Q01DX005 (ip), vehicle: saline with Tween-80
[3] = dose: 200.0 mg/kg/injection, schedule: Q01DX005 (ip), vehicle: saline with Tween-80
[4] = dose: 100.0 mg/kg/injection, schedule: Q01DX009 (ip), vehicle: saline with Tween-80
[5] = dose: 200.0 mg/kg/injection, schedule: Q01DX009 (ip), vehicle: saline with Tween-80
[6] = dose: 400.0 mg/kg/injection, schedule: Q01DX009 (ip), vehicle: saline with Tween-80
[7] = dose: 100.0 mg/kg/injection, schedule: Q04DX003 (ip), vehicle: Klucel (hydroxypropylcellulose) (HPC)
[8] = dose: 200.0 mg/kg/injection, schedule: Q04DX003 (ip), vehicle: Klucel (hydroxypropylcellulose) (HPC)
[9] = dose: 50.0 mg/kg/injection, schedule: Q01DX009 (ip), vehicle: saline
[10] = dose: 100.0 mg/kg/injection, schedule: Q01DX009 (ip), vehicle: saline
[11] = dose: 200.0 mg/kg/injection, schedule: Q01DX009 (ip), vehicle: saline
[12] = dose: 50.0 mg/kg/injection, schedule: Q01DX009 (ip), vehicle: Klucel (hydroxypropylcellulose) (HPC)
[13] = dose: 100.0 mg/kg/injection, schedule: Q01DX009 (ip), vehicle: Klucel (hydroxypropylcellulose) (HPC)

Measured: T/C

CC1(Oc2ccccc2)OC(=O)c2ccccc2O1 (stereo unspecified)
inactive: [1] 96 % of control | [2] 104 % of control | [3] 95 % of control

CN(C)CCP(=O)(O)O
inactive: dose: 100.0 mg/kg/injection, schedule: Q01DX001 (ip), vehicle: saline with Tween-80 95 % of control | dose: 200.0 mg/kg/injection, schedule: Q01DX001 (ip), vehicle: saline with Tween-80 100 % of control | dose: 400.0 mg/kg/injection, schedule: Q01DX001 (ip), vehicle: saline with Tween-80 100 % of control

CCCCCCCCCCC(=O)CCCC
inactive: [4] 109 % of control | dose: 100.0 mg/kg/injection, schedule: Q04DX003 (ip), vehicle: saline with Tween-80 100 % of control | [5] 104 % of control | dose: 200.0 mg/kg/injection, schedule: Q04DX003 (ip), vehicle: saline with Tween-80 95 % of control | [6] 109 % of control | dose: 400.0 mg/kg/injection, schedule: Q04DX003 (ip), vehicle: saline with Tween-80 95 % of control

COC(=O)CCSC(=S)NCc1ccccc1
inactive: dose: 50.0 mg/kg/injection, schedule: Q01DX005 (ip), vehicle: Klucel (hydroxypropylcellulose) (HPC) 98 % of control | dose: 100.0 mg/kg/injection, schedule: Q01DX005 (ip), vehicle: Klucel (hydroxypropylcellulose) (HPC) 96 % of control | dose: 200.0 mg/kg/injection, schedule: Q01DX005 (ip), vehicle: Klucel (hydroxypropylcellulose) (HPC) 102 % of control

COC(=O)CC1(C(=O)OC)C2=C(CCCC2)N2CCCC21 (stereo unspecified)
inactive: dose: 21.88 mg/kg/injection, schedule: Q01DX009 (ip), vehicle: Klucel (hydroxypropylcellulose) (HPC) 102 % of control | dose: 43.75 mg/kg/injection, schedule: Q01DX009 (ip), vehicle: Klucel (hydroxypropylcellulose) (HPC) 102 % of control | dose: 87.5 mg/kg/injection, schedule: Q01DX009 (ip), vehicle: Klucel (hydroxypropylcellulose) (HPC) 100 % of control | dose: 175.0 mg/kg/injection, schedule: Q01DX009 (ip), vehicle: Klucel (hydroxypropylcellulose) (HPC) 100 % of control

COc1ccc(/C(=N/N)c2ccccc2)cc1
inactive: [7] 100 % of control | [8] 114 % of control

Clc1ccc(SCc2csc(-c3ccc(Cl)cc3)n2)cc1
inactive: [9] 104 % of control | [10] 111 % of control | [11] 104 % of control

S=C1SCN(C2CCCCCCCCCCC2)CN1C1CCCCCCCCCCC1
inactive: dose: 50.0 mg/kg/injection, schedule: Q01DX009 (ip), vehicle: saline with Tween-80 94 % of control | [4] 93 % of control | [5] 97 % of control | [6] 101 % of control

CC(=O)NC1C(=O)OC(C(O)CO)C1O (stereo unspecified)
inactive: dose: 12.5 mg/kg/injection, schedule: Q01DX009 (ip), vehicle: water 106 % of control | dose: 25.0 mg/kg/injection, schedule: Q01DX009 (ip), vehicle: water 91 % of control | dose: 50.0 mg/kg/injection, schedule: Q01DX009 (ip), vehicle: water 94 % of control | dose: 100.0 mg/kg/injection, schedule: Q01DX009 (ip), vehicle: water 102 % of control | dose: 200.0 mg/kg/injection, schedule: Q01DX009 (ip), vehicle: water 98 % of control

Nc1cccc2c1C(=O)c1ccccc1C2=O
inactive: dose: 50.0 mg/kg/injection, schedule: Q04DX003 (ip), vehicle: Klucel (hydroxypropylcellulose) (HPC) 100 % of control | [7] 101 % of control | [8] 91 % of control | dose: 400.0 mg/kg/injection, schedule: Q04DX003 (ip), vehicle: Klucel (hydroxypropylcellulose) (HPC) 92 % of control

[Ni+2].[O-]/C(=N\N=C\c1ccccn1)c1ccccc1O.[O-]/C(=N\N=C\c1ccccn1)c1ccccc1O
inactive: dose: 50.0 mg/kg/injection, schedule: Q04DX002 (ip), vehicle: saline with Tween-80 98 % of control | dose: 100.0 mg/kg/injection, schedule: Q04DX002 (ip), vehicle: saline with Tween-80 101 % of control | dose: 200.0 mg/kg/injection, schedule: Q04DX002 (ip), vehicle: saline with Tween-80 89 % of control

O=c1c2[nH]c3ccccc3sc=2c(=O)n1-c1c(F)c(F)c(F)c(F)c1F
inactive: [1] 109 % of control | [2] 103 % of control | [3] 100 % of control

COc1ccc(C2C3=C(CCCC3=O)Oc3cc4c(cc32)OCO4)cc1 (stereo unspecified)
inactive: dose: 7.5 mg/kg/injection, schedule: Q01DX005 (ip), vehicle: saline with Tween-80 100 % of control | dose: 15.0 mg/kg/injection, schedule: Q01DX005 (ip), vehicle: saline with Tween-80 94 % of control | dose: 30.0 mg/kg/injection, schedule: Q01DX005 (ip), vehicle: saline with Tween-80 92 % of control | dose: 60.0 mg/kg/injection, schedule: Q01DX005 (ip), vehicle: saline with Tween-80 90 % of control and 91 % of control

N#CC1CC2C=CC1C2 (stereo unspecified)
inactive: dose: 5.0 mg/kg/injection, schedule: Q01DX009 (ip), vehicle: saline sonified 109 % of control | dose: 10.0 mg/kg/injection, schedule: Q01DX009 (ip), vehicle: saline sonified 109 % of control | dose: 20.0 mg/kg/injection, schedule: Q01DX009 (ip), vehicle: saline sonified 90 % of control

CN1C(=O)CNC(=O)c2ccc(Cl)cc21
inactive: [1] 108 % of control | [2] 90 % of control | [3] 115 % of control

O=P(O)(O)SP(=O)(O)O.[Co]
inactive: [12] 105 % of control | [13] 94 % of control

CCCCCC1OC1CC1OC1CCCCCCCC(=O)O (stereo unspecified)
inactive: [9] 99 % of control | [10] 90 % of control | [11] 86 % of control

O=C(O)Cc1ccc2c(c1)Cc1cccnc1O2
inactive: [12] 108 % of control | [13] 96 % of control | dose: 200.0 mg/kg/injection, schedule: Q01DX009 (ip), vehicle: Klucel (hydroxypropylcellulose) (HPC) 119 % of control

— PubChem BioAssay AID330 (DTP/NCI, 2004)
